Here are results for three molecules from patent publication US8709445B2, “Vaccination with killed but metabolically active (KBMA) protozoans with toll-like receptor agonists” (priority 2007, dated 2014).

“Also recorded” adds a separate entry of the source. Bounds are passed on as bounds.

In one test the test system is Leishmania chagasi. Description: In vitro luciferase assay of parasite metabolic activity after S-59 and UVA. In kind it is cell-based. Here is the method: The L. chagasi strain (MHOM/BR/00/1669), originally isolated from a patient with visceral leishmaniasis in Northeast Brazil, was maintained by serial intracardiac injection in outbred male golden hamsters. Virulent amastigotes were isolated from hamster spleens removed from animals infected approximately 3 months prior to sacrifice. Promastigotes were cultured in hemoflagellate minimal essential medium (HOMEM) at 26° C. and were used for vaccination or challenge within one month of harvest from the hamsters. Killed But Metabolically Active (KBMA) promastigotes were prepared by incubating late-log or stationary phase organisms in amotosalen (S-59) 100 nM for one hour while shaking at room temperature, followed by cross-linking of DNA using UVA irradiation of aliquots of 2 ml of cells in 6 well plates in an Intercept Illuminator (Cerus Corporation). Radiation dose was 5.4 J/cm^2. Heat-killed organisms were prepared by incubating in a 100° C. bath for 10 minutes. Transgenic firefly luciferase expressing L. chagasi and L. major were kindly provided by Dr. Beverley. For CFSE-based flow cytometry experiments, promastigotes were stained with CFSE at 5 μM and, shaken at 37° C. for 10 minutes. Parasites were washed three times with PBS and then cultured at an initial concentration of 5×10^6 per ml in HOMEM for in vitro experiments or injected into mice in 200 μL, of PBS at a concentration of 5×10^8 per ml.
Serial measures of parasite luciferase activity were made using a Sirius Single Tube Luminometer (Berthold Detection Systems). Aliquots of cultured organisms were taken daily and combined with 5× reporter lysis buffer per the manufacturer's instructions, and frozen at −80° C. All samples were then snap-thawed at 37° C. on the day of assay. 50 μl samples from each aliquot were combined with 100 μl of luciferin and luminescence was quantified with the luminometer in relative luminsescence units (RLU).
A mouse visceral leishmaniasis model employing Leishmania chagasi expressing firefly luciferase was used to test the susceptibility of a eukaryotic pathogen to in vitro inactivation?). L. chagasi were treated with varying doses of S-59 for 1 hour and then exposed to 5.4 J/cm2 UVA using a commercial illuminator which delivers tightly metered UVA doses to a shaking flask of organisms. This UVA dose was determined based on prior experience with Listeria. After irradiation with UVA, parasites were kept in culture and assayed at various time points for luciferase expression as a measure of metabolic activity. […] To determine if the S-59 induced decline in luciferase activity was associated with an inability to replicate, live L. chagasi promastigotes were stained with the intracellular dye CFSE and monitored for 1 week in culture.

Another test relates to L. chagasi promastigotes. Kind of test: CFSE flow cytometry of promastigote replication in culture. In kind it is cell-based, Leishmania chagasi. The following applies: 100 nM S-59 and 5.4 Joules/cm^2 UVA; days 1-7 in culture. Here is the method:
The L. chagasi strain (MHOM/BR/00/1669), originally isolated from a patient with visceral leishmaniasis in Northeast Brazil, was maintained by serial intracardiac injection in outbred male golden hamsters. Virulent amastigotes were isolated from hamster spleens removed from animals infected approximately 3 months prior to sacrifice. Promastigotes were cultured in hemoflagellate minimal essential medium (HOMEM) at 26° C. and were used for vaccination or challenge within one month of harvest from the hamsters. Killed But Metabolically Active (KBMA) promastigotes were prepared by incubating late-log or stationary phase organisms in amotosalen (S-59) 100 nM for one hour while shaking at room temperature, followed by cross-linking of DNA using UVA irradiation of aliquots of 2 ml of cells in 6 well plates in an Intercept Illuminator (Cerus Corporation). Radiation dose was 5.4 J/cm^2. […]
A mouse visceral leishmaniasis model employing Leishmania chagasi expressing firefly luciferase was used to test the susceptibility of a eukaryotic pathogen to in vitro inactivation?). […] This UVA dose was determined based on prior experience with Listeria. […] To determine if the S-59 induced decline in luciferase activity was associated with an inability to replicate, live L. chagasi promastigotes were stained with the intracellular dye CFSE and monitored for 1 week in culture.

Another test deals with L. chagasi. In kind it is in vivo, Leishmania chagasi. The following applies: for protection (reduction in liver parasite load): pilot experiment, combination of subcutaneous KBMA-LC and topically applied TLR agonist.
The test system of a further test is splenocytes. Kind of test: Luminex cytokine production in splenocytes from immunized mice. In kind it is in vivo, BALB/c mice.

Protocol for splenocytes: FIG. 11C: Luminex quantitation of cytokine production in splenocytes from L. chagasi immunized BALB/c mice with or without adjuvant 5% imiquimod. Mice were immunized three times at two week as in FIG. 10. Two weeks after the final vaccination, animals were sacrificed and 10^6 splenocytes from each were cultured for 66 hours in either in the presence of live L. chagasi. Supernatants from these cultures were frozen and then subsequently thawed and analyzed by the luminex method using antibodies and antibody coated beads specific for the indicated cyotokines. Bars show concentration of the relevant cytokine in pg/ml+/−SEM.
In a parallel experiment, groups of mice were vaccinated and boosted twice as described above. Splenocytes were harvested from these animals 2 weeks after the third vaccination. Splenocytes were then stimulated with either live LC promastigotes or soluble L. chagasi antigen (SLA) for 66 hours in culture and supernatants were harvested.

For `Cc1oc2c(C)c3oc(=O)cc(C)c3cc2c1COCCN` [S-59, amotosalen], in the test with Leishmania chagasi (10^7 promastigotes, 100 nM S-59 and 5.4 Joules/cm^2 UVA), the “time by which all detectable metabolic activity was abolished” value is ≤ 3 weeks. Also, in the test on Leishmania chagasi (100 nm S-59 and UVA, culture inoculated at 10^7 per ml), the “luciferase activity by day 21” value was “approaches baseline luminescence from PBS”. Besides, the “effect of higher doses of S-59 on luciferase activity” value in the test with Leishmania chagasi (doses higher than 100 nM, with UVA, data not shown) is “more rapid decline in luciferase activity”. In addition, the “S-59 dose leading to breakthrough outgrowth of parasites” value in the test on Leishmania chagasi (with 5.4 J/cm2 UVA, data not shown) is reported as “lower than 50 nM”. Besides, in the test on L. chagasi promastigotes, the “replication of CFSE stained promastigotes (per parasite fluorescence)” value is reported as “no such diminution; also recorded: arrests replication”.

In the case of `CC(C)Cn1cnc2c(N)nc3ccccc3c21` [imiquimod, 1-isobutyl-1H-imidazo[4,5-c]quinolin-4-amine], in the test on L. chagasi (Example 3, imiquimod 5% without whole cell vaccine (PBS)), the “effect of adjuvant only” value is reported as “trend towards a protective effect”. Besides, the “effect of adjuvant cream compared to control vehicle cream” value with L. chagasi (Example 3, topical 5% cream in each vaccination group) is on record as “additional protection”. In addition, the “protection (reduction in liver parasite load)” value with L. chagasi is on record as 68%. Besides, in the test with splenocytes (imiquimod 5% with whole cell vaccines), the “pattern of cytokine expression, whole cell vaccines with adjuvant versus vehicle” value was “increased IFN-γ but decreased IL-10, IL-4, and IL-5”. In addition, in the test on splenocytes (imiquimod 5% without whole cell vaccine), the “cytokine production, PBS with adjuvant versus PBS with vehicle” value was “no increase in cytokine production”.

Consider `CCOCc1nc2c(N)nc3ccccc3c2n1CC(C)(C)O` [resiquimod, 4-Amino-2-(ethoxymethyl)-a,a-dimethyl-1H-imidazo[4,5-c]quinoline-1-ethanol], for which, in the test on L. chagasi, the “protection (reduction in liver parasite load)” value is 87%.
